According to US20260325465A1, “SHP-1 INHIBITORS FOR TREATING CANCER” (MDX MANAGEMENT LLC, priority 2022, published 2026):

Experiments:
KPC pancreatic tumor = experiment: Cytokines, antigen presentation and chemokines in KPC tumor after treatment; assay type: in vivo, murine
From the text: FIGS. 7A-7F depict that the inhibition of SHP-1 unleashes proinflammatory response and antigen presentation in solid tumor upon therapies. […] Low PTP/SHP-1 activity was found in untreated, homeostatic tumor. […] Similar data were obtained by studying colorectal carcinoma MC38.

MC38 solid tumor = experiment: Cytokine secretion of excised MC38 tumor cubes (ELISA); design: species or system murine; conditions: 100 nM, 24 h
From the text: FIGS. 6A-6D depict that the inhibition of SHP-1 promotes anti-tumor effects or pro-tumor effects under different circumstances. FIG. 6A depicts that intratumoral macrophages upregulate expression of iRs (Pir-B, Siglec E, F and G, and SIRPα) along with tumor progression to late-stage large sizes. KPC pancreatic tumors of small sizes (<150 mm^3) and those grown to larger sizes (>800 mm^3) were dissociated to single cells, followed by flow cytometry analyses for cell surface protein expression on macrophages (gated F4/80+). FIG. 6B depicts that the inhibition of SHP-1 alone promotes TME immunosuppression. Excised MC38 solid tumor cubes were treated with SHP-1 inhibitor TPI-1 (100 nM) or vehicle (DMSO) in a cell culture setting. After 24 h, tumor secreting cytokines into the culture medium were assayed by ELISA.

Study-3: adverse effects = assay type: in vivo, mice; conditions: TPI-1 with RT and αPD-L1
Procedure: (§1) FIGS. 13A-13E depict pulse-intermittent SHP-1 inhibition (iSHP-1) combination with RT and αPD-L1 treating pancreatic cancer and lung cancer. FIG. 13A depicts experimental schemes. […] Concomitantly, the tumor at the right flank was treated with 8Gy X-ray radiation (RT). After two days of intermittent period, mice on day 4 were treated with the 2nd cycle TPI-1 (i.p.) of the same dose while RT reduced to 4Gy applied to the right flank tumor. The 3rd cycle (day 7) iSHP-1 combination with RT reduced to 2Gy. Anti-PD-L1 Ab (100 μg, i.p.) was given a day following TPI-1 plus RT. FIG. 13B depicts luminescent image tracing KPC-luc and LLC-luc tumor changes post treatment. FIG. 13C depicts record of tumor volume changes and animal survival up to post-treatment 45 days.
(§2) Modalities & Dosing Strategy: i) iSHP-1—TPI-1, 3 or 5 mg/kg, i.p., 1× every 3 days. ii) Tumor focal RT: 8Gy-4Gy-2Gy, given to right flank simultaneously with iSHP-1. iii) αPD-L1: 100 μg, i.p., given a day after iSHP-1 plus RT

p-STAT1 and p-Erk1/2 = experiment: STAT1 and Erk1/2 phosphorylation in macrophages with cancer cell ligation; assay type: cell-based; conditions: IFNγ/LPS
Procedure: FIGS. 2A-2G depict that the inhibition of SHP-1 enhances macrophage proinflammatory response, antigen presentation and phagocytosis in a tumor milieu. FIG. 2A and FIG. 2B depict that SHP-1 activity in macrophages is triggered by proinflammatory stimulation and the extracellular cancer cell ligation (“touching”) of macrophages (green bar in FIG. 2A). […] The SHP-2 inhibitor SHP099 (1 μg/ml) was used in assays. FIG. 2C depicts the inhibition of SHP-1 by TPI-1 dose-dependently recovers IFNγ/LPS-induced activation of STAT1 (p-STAT1) and Erk1/2 (p-Erk1/2) de-activated by SHP-1 (red line). FIG. 2D and FIG. 2E depict that the inhibition of SHP-1 in macrophages by TPI-1 enhances production of proinflammatory cytokines (FIG. 2D) and expression of immunogenic antigen presentation machinery (FIG. 2E) by IFNγ/LPS in a tumor milieu. […] The SHP-1 and SHP-2 inhibitors TPI-1 and SHP099, respectively, was used at 1 μg/ml in assays.
Macrophages with high SHP-1 activity in a tumor milieu diminish production of proinflammatory cytokines but produce high IL-10 (see FIG. 2D, blue bar) under stimulation of IFNγ/LPS. This reinforcement of immunosuppression was reversed by SHP-1 inhibition. […]

[1] = system: KPC pancreatic adenocarcinoma; experiment: Study-1: continuous vs intermittent iSHP-1 with TLR agonists, efficacy; assay type: in vivo, mice; conditions: 1, 3 and 10 mg/kg i.p., with CpG plus PolyI:C
Procedure: FIGS. 11A-11E depict the impact of continuous or intermittent iShp-1 treatment on the efficacy and adverse toxicity. FIG. 11A depicts the study design. Mice with KPC pancreatic cancer were either continuously treated with TPI-1 (1× per day) or in an intermittent fashion with gapping days between two treatments (intermittent). Three doses, 1, 3 and 10 mg/kg (i.p.), were tested and TLR agonists (CpG plus PolyI:C, each 10 μg, i.p., 1× every 3 day) was given to kickstart inflammatory response. […] Tumor imaging (FIG. 11B) and volume change records (FIG. 11C) indicate similar efficacies of iShp-1 with continuous or intermittent schemes.
Tumor model: Single engraftment of KPC pancreatic adenocarcinoma
Treatments & dosing strategies: i) iSHP-1—TPI-1, 1, 3, and 10 mg/kg; i.p. either 1× per day (continuous), or following an intermittent schedule depicted in FIG. 11. ii) TLR agonists (αTLR)—CpG, PolyI:C, each 10 μg; i.p. every 3 days

MC38 tumor = experiment: Ex vivo treatment of excised MC38 tumor; design: species or system murine; conditions: TPI-1 and αTLR
From the text: FIGS. 8A-8E depict that SHP-1 inhibition combined with TLR agonists (αTLR) reprograms TME of MC38 colorectal carcinoma. FIG. 8A depicts MC38 tumor treatment scheme.
Consistent with these changes, TME analyses of MC38 colorectal and KPC pancreatic tumors treated with TLR agonist combined with TPI-1 or RT (FIGS. 8A-8E & 9) found rapid infiltration of inflammatory neutrophils (ROShigh) and tumor-killing NK cells (Granzhigh), and the strong antigen presentation also brought about the expansion of tumor-specific (p15E-reactive) cytotoxic T cells harboring high tumoricidal capacity (Granzhigh). The immunosuppressive compartments in the same TME, including MDSC and Treg, were reduced. […] Ex vivo infusion of TLR agonists and TPI-1 together, but not each individually, into excised tumors induced the similar response of T cell expansion.

KPC pancreatic cancer = experiment: Study-3: iSHP-1 with RT and αPD-L1, KPC pancreatic cancer; assay type: in vivo, mice; conditions: TPI-1 3 or 5 mg/kg i.p. every 3 days, right flank RT 8Gy-4Gy-2Gy, αPD-L1 100 μg
Procedure: as §1, §2

LLC lung cancer = experiment: Study-3: iSHP-1 with RT and αPD-L1, LLC lung cancer; assay type: in vivo, mice; conditions: TPI-1 3 or 5 mg/kg i.p. every 3 days, right flank RT 8Gy-4Gy-2Gy, αPD-L1 100 μg
Procedure: as §1, §2

[2] = with αTLR or RT, single dose TPI-1
[3] = with αTLR or RT, single dose TPI-1, 6-18 h

O=C1C=CC(=O)C(c2cc(Cl)ccc2Cl)=C1 [TPI-1]
proinflammatory cytokines in tumor (KPC pancreatic tumor; with TLR agonists or RT, single dose TPI-1, 6-18 h post treatment): high expression of proinflammatory cytokines | TGFRs and CCL2 in TME (KPC pancreatic tumor; [2]): reduced | chemokines that attract neutrophils, NK and T cells (KPC pancreatic tumor; [2]): increased in the TME | IL-10 and TGFβ in tumor (KPC pancreatic tumor; [3]): abating IL-10 and TGFβ | antigen presentation markers of intratumoral macrophages (KPC pancreatic tumor; [3]): elevated cell surface markers MHC-I, MHC-II, and costimulatory molecules CD80, CD86, CD40, OX40L | tumor production of IL-6 (MC38 solid tumor): increased tumor production of IL-6 and IL-10 | tumor production of IL-10 (MC38 solid tumor): increased tumor production of IL-6 and IL-10 | lung inflammation (Study-3: adverse effects): nor did it incur lung inflammation | splenomegaly, body weight loss, anemia (Study-3: adverse effects): did not cause splenomegaly, body weight loss or anemia | STAT-1 and Erk1/2 phosphorylation (p-STAT1 and p-Erk1/2): dose-dependently released cancer cell-imposed inhibition | tumor response [1]: restrained KPC pancreatic tumor growth and induced tumor regression | CD8 T cell expansion in excised tumor (MC38 tumor): induced CD8 T cell expansion | tumor elimination incl. distal lesions (KPC pancreatic cancer): effectively eliminating or repressing KPC pancreatic cancer and LLC lung cancer along with distal lesions | tumor elimination incl. distal lesions (LLC lung cancer): effectively eliminating or repressing KPC pancreatic cancer and LLC lung cancer along with distal lesions
